# Source: US9192619B2 (Peking University Third Hospital, priority 2010, dated 2015)
# Where “and” joins values, the source holds several entries; their conditions need not be identical. Equal entries are not always repeated.
# Test system: permanent focal cerebral ischemia model (MCAO)
# Assay: Permanent focal cerebral ischemia model by middle cerebral artery occlusion (MCAO), infarction size by TTC staining of brain slices
# Type: in vivo, Sprague Dawley rats
# Conditions: single rats, 12 h ischemia
# Protocol: Experimental conditions: Sprague Dawley rats weighing about 250-300 g with a brain tissue volume of 1.5 mL were used. The subjects were divided into eight groups, and each group had eight rats. […] Efficacy validation: two hours after ECS administration and one hour after intraperitoneal injection, a permanent focal cerebral ischemia model was made by middle cerebral artery occlusion (MCAO). The brains of rats from each group were removed 12 hours after cerebral ischemia. The brain slices were obtained by cutting the brain at every 2 mm (5 slices from each rat). Then the slices were stained with 2,3,5-triphenyl-2H-tetrazolium chloride (TTC) for evaluating the cerebral infarction size and the effectiveness of administration of the drug via ECS.
smiles,measurement,setting,value
"C[N+](C)(C)CCOP(=O)(O)OP(=O)([O-])OC[C@H]1O[C@@H](n2ccc(N)nc2=O)[C@H](O)[C@@H]1O [CDPC, citicoline]",Infarction percentages,"CDPC 25 mM via brain ECS (caudate nucleus), 0.2 μL/min, 2 μL, MCAO 2 h after administration",33.7% and 5.6% and 18.6% and 34.1% and 38.1% and 42% and 24.9% and 22.8%
same,Infarction percentages,"CDPC 40 mM via brain ECS, 0.2 μL/min, 2 μL, MCAO 2 h after administration",2.3% and 6.7% and 2.2% and 2.9% and 6.9% and 3.6% (2×) and 5.3%
same,Infarction percentages,"CDPC 50 mM via brain ECS, 0.2 μL/min, 2 μL, MCAO 2 h after administration",1.3% and 5.7% and 3% and 1.7% and 3.7% and 4.8% and 5% and 7.3%
same,Infarction percentages,"CDPC 60 mM via brain ECS, 0.2 μL/min, 2 μL, MCAO 2 h after administration",2.3% and 3.7% and 3.6% and 1.7% and 6.7% and 8.8% and 3.5% and 4.2%
same,Infarction percentages,"CDPC 75 mM via brain ECS, 0.2 μL/min, 2 μL, MCAO 2 h after administration",31.2% and 35.8% and 4.0% and 37.8% and 16.1% and 29.8%
same,Infarction percentages,"CDPC 100 mM via brain ECS, 0.2 μL/min, 2 μL, MCAO 2 h after administration",29.1% and 35.9% and 20.7% and 8.1% and 38.8% and 20.6% and 11.5% and 41.6%
same,Infarction percentages,"CDPC 245 mM via brain ECS, 0.2 μL/min, 2 μL, MCAO 2 h after administration",24.8% and 51.2% and 14.8% and 20% and 26.7% and 18.1% and 48.3% and 33.4%
same,Infarction percentages,"CDPC 1000 mM intraperitoneal, 1 mL (about 4 mL/kg), 1 mL/min, MCAO 1 h after administration",30.6% and 26.4% and 10.7% and 5.2% and 25.5% and 27.0% and 33.9% and 32.3%
